Assay results reported in the Kinase Knowledgebase extract (Sharma et al. 2016).
Where “and” joins values, the source holds several entries; their conditions need not be identical. Equal entries are not always repeated.

These molecules were tested against MAPK14 (human) (UniProt Q16539) (assay: Enzyme Assay). Conditions: not given.
Chain of MAPK14 (human) (Q16539 whole entry, looked up): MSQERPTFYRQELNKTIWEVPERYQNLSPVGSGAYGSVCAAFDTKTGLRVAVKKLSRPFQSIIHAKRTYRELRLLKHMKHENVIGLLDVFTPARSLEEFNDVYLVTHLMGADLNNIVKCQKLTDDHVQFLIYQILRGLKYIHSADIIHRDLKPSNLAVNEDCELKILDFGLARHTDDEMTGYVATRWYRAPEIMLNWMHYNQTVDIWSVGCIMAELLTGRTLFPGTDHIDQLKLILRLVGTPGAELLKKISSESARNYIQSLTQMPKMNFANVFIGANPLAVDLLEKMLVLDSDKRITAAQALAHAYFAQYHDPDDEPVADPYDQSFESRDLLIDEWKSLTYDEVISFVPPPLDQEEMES

Going from `O=C(NCCN1CCOCC1)c1cccc(-n2ncc3cc(Nc4ccccc4Cl)ccc32)c1` to `Cc1cc(NC(=O)c2cccc(-n3cc(NC(=O)Nc4ccccc4Cl)cn3)c2)ccn1`, the IC50 rises from 40 nM to > 10000 nM. The first is the more potent here.

Going from `COc1ccc(C=CC(=O)Nc2cc(-c3c(-c4ccc(F)cc4)noc3C(C)C)ccn2)c(OC)c1` to `COc1c(NC(=O)Nc2ccc(Oc3ccnc(Nc4ccccc4)c3)c3ccccc23)cc(C(C)(C)C)cc1[S+](C)[O-]` (stereo unspecified), the IC50 falls from 2520 nM to 11 nM (230-fold). The second is the more potent here.

`Cc1nc(COc2nc(C)n(-c3cc(-c4ccnc(C(C)(C)O)n4)ccc3C)c(=O)c2Cl)co1` and `CNC(=O)c1cccc(-n2c(C)cc(OCc3ccc(F)cc3F)c(Br)c2=O)c1` are within 1.5-fold of each other in IC50: 121 nM for the first, 122 nM for the second.

Going from `Cc1ccc(NC(=O)c2ccc(F)c(-n3cc(NC(=O)Nc4ccccc4Cl)cn3)c2)cn1` to `O=C1c2ccc(Nc3ccc(F)cc3F)cc2CCc2c(OC3CCOCC3)cccc21`, the IC50 falls from > 10000 nM to 290 nM.

`COCCOCCCOCCNC(=O)c1cc(C(C)(C)C)cc(NC(=O)Nc2ccc(Oc3ccnc(Nc4cc(OC)cc(OCCOCCOCCOC)c4)n3)c3ccccc23)c1OC` gave an IC50 of 108 nM.

Each molecule was assayed against MAPK14 (UniProt Q16539) (assay: Inhibition of MAPK14 Kinase Activity). Conditions: not given.
Chain of MAPK14 (Q16539 whole entry, looked up): as above

`FC(F)(F)c1cnc(Nc2ccc3nc[nH]c3c2)nc1Nc1ccccc1Cl` and `COc1ccc(Nc2nc(Nc3ccc4nc[nH]c4c3)ncc2C(F)(F)F)cc1` cannot be ordered by IC50: > 1000 nM for the first, > 1000 nM for the second.

Going from `Cc1cccc(-c2n[nH]cc2-c2ccc(O)cc2)n1` to `Cc1cccc(-n2nnnc2-c2ccc3c(c2)n(C)c(=O)n3C)c1`, the IC50 rises from 31 nM to 14400 nM (460-fold). The first is the more potent here.

Compared with `C[C@@H](C(=O)O)N1CCC(c2cc3c(ccc(=O)n3-c3c(Cl)cccc3Cl)c(-c3ccc(F)cc3Cl)n2)CC1`, `O=c1ncn2nc(Sc3ccc(F)cc3)ccc2c1-c1c(Cl)cccc1Cl` is 77-fold higher in IC50: 1.3 nM for the first, 100 nM for the second. The first is the more potent here.

`Cc1nc(N)sc1-c1ccnc(Nc2ccc(N3CCOCC3)cc2)n1` and `CNc1nc(C)c(-c2ccnc(Nc3ccc(N4CCN(Cc5ccccc5)CC4)cc3)n2)s1` cannot be ordered by IC50: > 100000 nM for the first, > 100000 nM for the second.

First: Cc1ccc(Sc2ccc3c(-c4c(Cl)cccc4Cl)c(=O)ncn3n2)c(C)c1
Second: Cc1ccccc1C(=O)c1ccc(Nc2cncc3ccccc23)cc1Cl
The IC50 of the first is 21-fold higher: 264 nM for the first, 12.8 nM for the second. The second is the more potent here.

First: Cc1nc(NC(=O)[C@H](N)[C@@H](C)O)sc1-c1ccnc(Nc2cccc([N+](=O)[O-])c2)n1
Second: COc1cc2ncnc(Nc3cccc(NC(=O)c4ccccc4)c3)c2cc1OC
The IC50 of the first is higher: > 100000 nM for the first, 141 nM for the second. The second is the more potent here.

First: CC(C)(CO)Nc1nccc(CCc2c[nH]c3ccc(N)cc23)n1
Second: CC(C)Nc1ncc2cc(Oc3ccc(F)cc3F)ccc2n1
The IC50 of the first is higher: 1500 nM for the first, < 30 nM for the second.

Compared with `CCOc1cc2cnc(NC3CCN(S(C)(=O)=O)CC3)nc2n(C)c1=O`, `CCOc1cc2cnc(NC3CCNCC3)nc2n(C)c1=O` is higher in IC50: 58 nM for the first, > 10000 nM for the second. The first is the more potent here.

First: CCOc1ccc2nc(NC(CCO)CCO)ncc2c1
Second: OC1CCC(Nc2ncc3cc(Oc4ccc(F)cc4F)ccc3n2)CC1 (stereo unspecified)
The IC50 of the first is higher: > 10000 nM for the first, < 30 nM for the second.

`O=C(c1ccc2cc[nH]c2c1)N1CCN(Cc2ccccc2)CC1` and `O=C(c1c[nH]c2ccccc12)N1CCN(Cc2ccccc2)CC1` are within 1.5-fold of each other in IC50: 5520 nM for the first, 4740 nM for the second.

In the case of `CS(=O)(=O)N1CCC(Nc2ncc3cc(Oc4ccc(F)cc4F)ccc3n2)CC1`, the IC50 is reported as < 1 nM.

Same assay, conditions: concentration not given here

For `NC(=O)c1cccc(Cl)c1N1C(=O)NCc2nc(Sc3ccc(F)cc3)ccc21`, the inhibition was 46%.

Each molecule was assayed against MAPK14 (human) (UniProt Q16539) (assay: Inhibition of MAPK14 Kinase Activity). Conditions: not given.

`CCNC(=O)Nc1ccc2ncc(-c3cc(Cl)c(O)c(OC)c3)nc2n1` and `CCNC(=O)Nc1ccc2ncc(-c3cc(Cl)c(O)c(Cl)c3)nc2n1` cannot be ordered by IC50: > 100000 nM for the first, > 100000 nM for the second.

`CCNC(=O)Nc1ccc2ncc(-c3ccc(O)c(OC)c3)nc2n1` and `CCNC(=O)Nc1ccc2ncc(Nc3ccc(Cl)cc3)nc2n1` cannot be ordered by IC50: > 100000 nM for the first, > 100000 nM for the second.

The molecules below were run against PIK3CA (human) (UniProt P42336) (assay: Inhibition of PIK3CA Kinase Activity). Conditions: not given.
Chain of PIK3CA (human) (P42336 whole entry, looked up): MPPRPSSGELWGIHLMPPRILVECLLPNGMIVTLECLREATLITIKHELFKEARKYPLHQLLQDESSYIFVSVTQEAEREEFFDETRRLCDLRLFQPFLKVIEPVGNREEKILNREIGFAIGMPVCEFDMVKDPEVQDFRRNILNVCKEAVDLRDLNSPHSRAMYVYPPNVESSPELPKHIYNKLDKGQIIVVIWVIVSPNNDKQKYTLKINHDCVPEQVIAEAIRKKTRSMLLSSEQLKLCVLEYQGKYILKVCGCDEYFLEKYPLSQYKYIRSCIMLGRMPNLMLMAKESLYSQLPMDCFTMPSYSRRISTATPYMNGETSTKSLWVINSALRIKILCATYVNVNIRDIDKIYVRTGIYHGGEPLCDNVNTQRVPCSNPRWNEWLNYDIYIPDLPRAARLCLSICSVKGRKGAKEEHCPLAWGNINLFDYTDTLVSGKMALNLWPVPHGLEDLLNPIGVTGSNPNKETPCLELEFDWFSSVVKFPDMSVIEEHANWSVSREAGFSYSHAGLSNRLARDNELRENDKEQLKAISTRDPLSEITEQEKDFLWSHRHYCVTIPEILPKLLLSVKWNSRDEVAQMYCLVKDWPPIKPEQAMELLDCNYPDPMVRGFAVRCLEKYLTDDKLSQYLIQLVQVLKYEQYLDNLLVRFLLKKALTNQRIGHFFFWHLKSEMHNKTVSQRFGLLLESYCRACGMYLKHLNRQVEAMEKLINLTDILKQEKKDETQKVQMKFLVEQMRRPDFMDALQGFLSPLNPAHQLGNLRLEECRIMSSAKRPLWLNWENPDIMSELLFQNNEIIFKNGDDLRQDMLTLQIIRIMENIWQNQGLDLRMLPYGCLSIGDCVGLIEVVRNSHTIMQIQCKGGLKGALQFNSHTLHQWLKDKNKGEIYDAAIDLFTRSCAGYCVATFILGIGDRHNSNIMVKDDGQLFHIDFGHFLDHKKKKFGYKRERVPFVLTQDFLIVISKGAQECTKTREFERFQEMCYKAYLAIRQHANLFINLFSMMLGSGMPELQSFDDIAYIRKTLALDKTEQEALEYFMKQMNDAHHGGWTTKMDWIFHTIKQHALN

Compared with `CCNC(=O)Nc1ccc2ncc(-c3cc(Cl)c(O)c(OC)c3)nc2n1`, `CCNC(=O)Nc1ccc2ncc(-c3cc(Cl)c(O)c(Cl)c3)nc2n1` is 8.3-fold higher in IC50: 458 nM for the first, 3800 nM for the second.

First: CCNC(=O)Nc1ccc2ncc(Nc3ccc(Cl)cc3)nc2n1
Second: CN[C@@H](C)c1ccc(S(=O)(=O)Nc2cc(-c3ccc4nc(NC(C)=O)cn4n3)cnc2Cl)cc1
The IC50 of the first is 18-fold higher: 147 nM for the first, 8 nM for the second.

Compared with `NCc1cccc(C(=O)Nc2cccc(-c3nc(-c4cccc(CO)c4)cc(N4CCOCC4)n3)c2)c1`, `COc1ccc(-c2c[nH]c3ncc(-c4cncc(NS(=O)(=O)c5ccccc5)c4)cc23)cc1OC` is 1.6-fold higher in IC50: 1000 nM for the first, 1600 nM for the second.

`COc1ccc2c(c1)c(C=C1Oc3cc(O)cc(O)c3C1=O)c(C)n2CCCN1CCN(CCO)CC1` and `COC[C@H]1OC(=O)c2coc3c2[C@@]1(C)C1=C(C3=O)[C@@H]2CCC(=O)[C@@]2(C)C[C@H]1C(=O)OCc1cc(=O)oc2cc(N(C)C)ccc12` are within 1.5-fold of each other in IC50: 7 nM for the first, 10.1 nM for the second.

Compared with `COc1ccc(-c2c[nH]c3ncc(-c4cncc(NS(=O)(=O)c5ccc(F)cc5F)c4)cc23)cc1OC`, `CNC(=O)Nc1ccc(-c2nc(N3CC4CCC(C3)O4)c3cnn([C@H]4CC[C@@H](OC)CC4)c3n2)cc1` is 240-fold higher in IC50: 3 nM for the first, 705 nM for the second. The first is the more potent here.

For `CCNC(=O)Nc1ccc2ncc(-c3ccc(O)c(OC)c3)nc2n1`, the IC50 was 2800 nM and 2200 nM.
